In ChEMBL document CHEMBL1150369, “Conformation-opioid activity relationships of bicyclic guanidines from 3D similarity analysis” (Bioorg Med Chem, 2008):

Target: Kappa-type opioid receptor (Cavia porcellus, UniProt P41144)
Assay: Displacement of [3H]U69593 from kappa opioid receptor in guinea pig brain homogenate
Type: tissue-based

Sequence of Kappa-type opioid receptor (P41144 whole entry): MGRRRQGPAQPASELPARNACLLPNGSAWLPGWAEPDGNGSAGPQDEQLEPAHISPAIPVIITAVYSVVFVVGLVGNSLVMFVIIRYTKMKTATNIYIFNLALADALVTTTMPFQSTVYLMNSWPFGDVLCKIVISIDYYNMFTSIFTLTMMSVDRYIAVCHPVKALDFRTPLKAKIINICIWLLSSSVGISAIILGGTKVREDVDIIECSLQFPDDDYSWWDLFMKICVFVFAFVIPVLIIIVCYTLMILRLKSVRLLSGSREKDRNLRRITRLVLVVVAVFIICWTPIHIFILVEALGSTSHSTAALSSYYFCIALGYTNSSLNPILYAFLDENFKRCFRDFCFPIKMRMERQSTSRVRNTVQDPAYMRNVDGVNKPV

Row | Compound | IC50
1 | CC(C)C[C@@H]1CN2C(=NC[C@@H]2C2CCCCC2)N1CCC12CC3CC(CC(C3)C1)C2 | 1210 nM
2 | C1CCC([C@H]2CN3C(=NC[C@@H]3C3CCCCC3)N2CCC23CC4CC(CC(C4)C2)C3)CC1 | 1490 nM
3 | COc1ccc(C[C@H]2CN3C(=NC[C@@H]3C)N2CCC23CC4CC(CC(C4)C2)C3)cc1 | 1530 nM
4 | CC(C)C[C@@H]1CN2C(=NC[C@H]2C2CCCCC2)N1CCC12CC3CC(CC(C3)C1)C2 | 1750 nM
5 | C[C@H]1CN=C2N(CCC34CC5CC(CC(C5)C3)C4)[C@@H](C3CCCCC3)CN21 | 1940 nM
6 | CC(C)C[C@@H]1CN2C(=NC[C@@H]2C)N1CCC12CC3CC(CC(C3)C1)C2 | 3640 nM
7 | C1CCC([C@H]2CN3C(=NC[C@H]3C3CCCCC3)N2CCC23CC4CC(CC(C4)C2)C3)CC1 | > 10000 nM
8 | CCOc1ccc(C[C@@H]2CN3C(=NC[C@@H]3C)N2CCC23CC4CC(CC(C4)C2)C3)cc1 | 151 nM
9 | CCOc1ccc(C[C@@H]2CN3C(=NC[C@@H]3C)N2CCC2CC3CCC2C3)cc1 (stereo not given in full) | 185 nM
10 | CCOc1ccc(C[C@@H]2CN3C(=NC[C@@H]3CC)N2CCC2CC3CCC2C3)cc1 (stereo not given in full) | 321 nM
11 | CCCC[C@@H]1CN=C2N(CCC3CC4CCC3C4)[C@H](Cc3ccc(OC)cc3)CN21 (stereo not given in full) | 430 nM
12 | COc1ccc(C[C@@H]2CN3C(=NC[C@H]3CC3CCCCC3)N2CCC23CC4CC(CC(C4)C2)C3)cc1 | 457 nM
13 | CCC[C@H]1CN=C2N(CC3CCC3)[C@@H](Cc3ccc(OC)cc3)CN21 | > 10000 nM
14 | COc1ccc(C[C@H]2CN3C(=NC[C@H]3CC3CCCCC3)N2CC2CCCC2)cc1 | > 10000 nM
15 | COc1ccc(C[C@H]2CN3C(=NC[C@@H]3C(C)C)N2CC2CCCC2)cc1 | > 10000 nM
16 | CC(C)C[C@H]1CN2C(=NC[C@@H]2C)N1CCCC1CCCCC1 | > 10000 nM

Row | Compound | IC50
17 | CC(C)[C@H]1CN2C(=NC[C@@H]2C)N1CCCCC1CCCCC1 | > 10000 nM
18 | C[C@H]1CN2C(=NC[C@@H]2C)N1CCC12CC3CC(CC(C3)C1)C2 | > 10000 nM
19 | CCC[C@H]1CN=C2N(CC3CCC3)[C@H](Cc3ccc(OC)cc3)CN21 | > 10000 nM
20 | COc1ccc(C[C@H]2CN3C(=NC[C@@H]3C3CCCCC3)N2CCC23CC4CC(CC(C4)C2)C3)cc1 | 4920 nM
21 | COc1ccc(C[C@@H]2CN3C(=NC[C@@H]3C3CCCCC3)N2CCC23CC4CC(CC(C4)C2)C3)cc1 | > 10000 nM
22 | COc1ccc(C[C@@H]2CN3C(=NC[C@H]3C3CCCCC3)N2CCC23CC4CC(CC(C4)C2)C3)cc1 | > 10000 nM
23 | C1CCC([C@H]2CN3C(=NC[C@H]3C3CCCCC3)N2CCC2CC3CCC2C3)CC1 (stereo not given in full) | 524 nM
24 | CC(C)C[C@@H]1CN2C(=NC[C@@H]2C)N1CCC1CC2CCC1C2 (stereo not given in full) | 2310 nM
25 | CC(C)C[C@@H]1CN2C(=NC[C@@H]2C)N1CCCC1CCCCC1 | 5440 nM
26 | CC(C)C[C@@H]1CN2C(=NC[C@H]2C2CCCCC2)N1CC1CCC(C)CC1 (stereo not given in full) | 738 nM
27 | CC(C)C[C@@H]1CN2C(=NC[C@@H]2C2CCCCC2)N1CC1CCC(C)CC1 (stereo not given in full) | 999 nM
28 | CC1CCC(CN2C3=NC[C@H](C)N3C[C@@H]2C2CCCCC2)CC1 (stereo not given in full) | 5060 nM
29 | CC(C)C[C@@H]1CN2C(=NC[C@H]2C2CCCCC2)N1CCCC1CCCCC1 | 1770 nM
30 | C1CCC([C@H]2CN3C(=NC[C@@H]3C3CCCCC3)N2CCC2CC3CCC2C3)CC1 (stereo not given in full) | 560 nM
31 | CC(C)C[C@@H]1CN2C(=NC[C@@H]2C2CCCCC2)N1CCCC1CCCCC1 | 3740 nM

Target: Delta-type opioid receptor (Homo sapiens, UniProt P41143)
Assay: Binding affinity at delta opioid receptor

Sequence of Delta-type opioid receptor (P41143 whole entry): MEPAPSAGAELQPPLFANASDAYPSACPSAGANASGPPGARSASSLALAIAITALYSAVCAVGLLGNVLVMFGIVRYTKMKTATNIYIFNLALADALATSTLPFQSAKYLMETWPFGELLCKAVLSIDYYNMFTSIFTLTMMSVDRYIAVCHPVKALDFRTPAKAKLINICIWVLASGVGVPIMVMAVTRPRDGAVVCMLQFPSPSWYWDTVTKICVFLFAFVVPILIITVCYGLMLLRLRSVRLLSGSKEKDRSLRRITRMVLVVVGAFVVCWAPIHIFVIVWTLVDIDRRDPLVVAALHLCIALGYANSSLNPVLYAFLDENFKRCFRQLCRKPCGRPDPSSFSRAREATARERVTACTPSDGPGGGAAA

Row | Compound | IC50
32 | COc1ccc(C[C@@H]2CN3C(=NC[C@@H]3C)N2CCC2CC3CCC2C3)cc1 (stereo not given in full) | 2070 nM
33 | COc1ccc(C[C@H]2CN3C(=NC[C@@H]3C)N2CCCC2CCCCC2)cc1 | 5460 nM

Target: Mu-type opioid receptor (Homo sapiens, UniProt P35372)
Assay: Binding affinity at mu opioid receptor

Sequence of Mu-type opioid receptor (P35372 whole entry): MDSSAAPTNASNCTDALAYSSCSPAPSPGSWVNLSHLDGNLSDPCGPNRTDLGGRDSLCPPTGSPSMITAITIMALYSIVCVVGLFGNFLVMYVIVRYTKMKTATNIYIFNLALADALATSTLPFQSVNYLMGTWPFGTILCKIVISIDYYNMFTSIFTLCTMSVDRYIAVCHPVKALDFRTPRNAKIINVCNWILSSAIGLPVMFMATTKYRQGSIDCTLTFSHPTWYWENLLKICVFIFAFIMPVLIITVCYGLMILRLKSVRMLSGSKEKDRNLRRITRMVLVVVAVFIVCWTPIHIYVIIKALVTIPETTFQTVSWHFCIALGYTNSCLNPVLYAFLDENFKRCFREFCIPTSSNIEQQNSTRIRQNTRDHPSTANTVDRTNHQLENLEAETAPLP

Row | Compound | IC50
34 | COc1ccc(C[C@@H]2CN3C(=NC[C@@H]3C)N2CCC2CC3CCC2C3)cc1 (stereo not given in full) | 20300 nM
35 | COc1ccc(C[C@H]2CN3C(=NC[C@@H]3C)N2CCCC2CCCCC2)cc1 | 421 nM
